Test [1] has as its system CaOv-3 human ovarian cancer cell line. In words: SRB cytotoxicity assay, CaOv-3. The test is classed as cell-based. The following applies: Homo sapiens, Caov-3; Table 8. Here is the method:
(§1) For in vitro cytotoxicity screening, 1000 to 5000 cells were plated into each well of 96-well plates depending on growth rate, and exposed to different concentrations of a test compound for 96 h in three to five replicates. All the compounds were dissolved in dimethyl sulfoxide at 5 to 20 mM, and diluted to desired concentrations in complete culture medium. Cell numbers at the end of the drug treatment were measured by the SRB assay (Gududuru et al., “Synthesis and Biological Evaluation of Novel Cytotoxic Phospholipids for Prostate Cancer,” Bioorg. Med. Chem. Lett. 14:4919-4923 (2004); Rubinstein et at., “Comparison of in vitro Anticancer-Drug-Screening Data Generated with a Tetrazolium Assay Versus a Protein Assay Against a Diverse Panel of Human Tumor Cell Lines,” J. Naatl, Cancer Inst. 82:1113-1118 (1990), each of which is hereby incorporated by reference in its entirety). Briefly, the cells were fixed with 10% of trichloroacetic acid, stained with 0.4% SRB, and the absorbances at 540 nm was measured using a plate reader (DYNEX Technologies, Chantilly, Va.).
(§2) In vitro cytotoxicity assay was performed by the same sulforhodamine B (SRB) assay (described above). The compounds shown in Table 8 below where tested for activity against the breast cancer and ovarian cancer cell lines.

Test [2] concerns LNCaP cells. In words: Apoptosis sandwich ELISA (DNA-histone complex), LNCaP. The test is classed as cell-based, human. The procedure: (§3) A sandwich ELISA (Roche, Mannheim, Germany) utilizing monoclonal antibodies specific for DNA and histones was used to quantify degree of apoptosis induced by the analogs after 72 h exposure. This assay measures DNA-histone complexes (mono- and oligonucleosomes) released into cytoplasm from the nucleus during apoptosis. RH7777 cells were employed because of nonspecific cytotoxicity of compound 4 in receptor-negative cells as well as receptor-positive prostate cancer cells.
(§4) From the LPL receptor mRNA expression studies (Table 2), it was evident that these cell lines serve as an excellent model system to explore the effects of LPL receptor. Given the structural similarity of SAPs to ceramide (and the known ability of ceramide to induce apoptosis), it was then determined whether the antiproliferative effects of thiazolidine analogs were mediated via apoptotla events. The ability of the analogs to induce apoptosis in LNCaP, PC-3, and RH7777 cells was examined using a quantitative sandwich ELISA that measures DNA-histone complex released during apoptosis. The enrichment factor calculated (as ratio of OD405 in treated and un-treated cells) provides a quantitative assessment of the degree of apoptosis induced. Initially, only two compounds (4 & 5) were used for this study. Apoptotic activity of analog (compound 4) was selective in prostate cancer cells despite nonselective cytotoxicity in RH7777 negative control cells (see Table 5 below). Analog compound 5 induced apoptosis in PC-3 and LNCaP cells, but to a lesser extent in PC-3 cells perhaps due to lower potency in this cell line.

For test [3], the system named is SKOv-3 human ovarian cancer cell line. Description: SRB cytotoxicity assay, SKOv-3. The following applies: Homo sapiens, SK-OV-3; Table 8. The test is classed as cell-based. The procedure: as §1, §2
Background: Sulforhodamine B stains cellular protein and so reports cell mass.

In test [4] the test system is PPC-1 human prostate cancer cells. In words: SRB cytotoxicity assay, PPC-1. It is filed as cell-based. The conditions noted are these: 96 h, read-out: IC50 PPC-1. The gist of the method: (§5)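 96 h compound exposure, 0–100 μM; 1000–5000 cells/well; 3–5 replicates. TCA fix (10%), 0.4% SRB stain, A540. Cell number expressed as % of untreated control.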
Test [5] relates to LNCaP human prostate cancer cells. Description: SRB cytotoxicity assay, LNCaP. The test is classed as cell-based. The following applies: 96 h; for IC50: Homo sapiens, LNCaP, Example 10 table, read-out: IC50 LNCaP. The gist of the method: as §5
The test system of test [6] is PC-3 human prostate cancer cells. In words: SRB cytotoxicity assay, PC-3. The conditions noted are these: Homo sapiens; Example 10 table; 96 h; read-out: IC50 PC-3. It is filed as cell-based. In a few lines: as §5
Test [7] relates to TSU-Pr1 human prostate cancer cells. In words: SRB cytotoxicity assay, TSU-Pr1. The test is classed as cell-based. The conditions noted are these: 96 h; for IC50: Homo sapiens, TSU-Pr1, Example 10 table, read-out: IC50 TSU-Pr1. The gist of the method: as §5
Test [8] has as its system RH7777 rat hepatoma cells. In words: SRB cytotoxicity assay, RH7777 control cell line. It is filed as cell-based. The conditions noted are these: for IC50: read-out: IC50 RH7777. The gist of the method:
as §5

A further test has as its system PC-3 cells. Description: Apoptosis sandwich ELISA (DNA-histone complex), PC-3. It is filed as cell-based, human. The procedure: as §3, §4
On the technique in general: An ELISA detects its analyte on a solid surface through an enzyme-linked reagent.

Test [9] has as its system human breast cancer cell line (MCF-7). Description: SRB cytotoxicity assay, MCF-7. The conditions noted are these: Homo sapiens, MCF7, read-out: IC50 MCF-7. It is filed as cell-based. In a few lines:
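Cells plated at 1000–5000 per well by growth rate and exposed to compound (0 to 100 μM) for 96 h, three to five replicates. Cell number read by sulforhodamine B: TCA fixation, 0.4% SRB staining, absorbance at 540 nm.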

For test [10], the system named is DU-145 human prostate cancer cells. Description: SRB cytotoxicity assay, DU-145. It is filed as cell-based. The following applies: Homo sapiens, DU-145, read-out: IC50 DU-145; Example 10 table; 96 h. In a few lines:
as §5

Test [11] has as its system OVCAR-3 human ovarian cancer cell line. In words: SRB cytotoxicity assay, OVCAR-3. It is filed as cell-based. The conditions noted are these: Homo sapiens, OVCAR-3; Table 8. The procedure:
as §1, §2

Test [12] concerns LNCaP cells. Description: DNA fragmentation by agarose gel electrophoresis. The test is classed as cell-based, human. The following applies: treated 24 to […], FIGS. 4A-B. Here is the method:
In FIG. 4B, the dose and exposure time are indicated for compound 5 as follows: lane 1, 100 bp DNA marker; lane 2, […] for 24 h; lane 3, 5 μM for 48 h; lane 4, 5 μM for 72 h; lane 5, 5 μM for 96 h; lane 6, 3 μM for 96 h; lane 7, 8 μM for 48 h; and lane 8, 8 μM for 72 h;

The next test has as its system RH7777 cells. In words: Apoptosis sandwich ELISA (DNA-histone complex), RH7777. It is filed as cell-based, rat. Here is the method:
as §3, §4

Test [13] relates to five human prostate cancer cell lines (DU-145, PC-3, LNCaP, PPC-1, TSU-Pr1). Description: SRB cytotoxicity assay, statements over several cell lines. It is filed as cell-based. The procedure: as §1
The antiproliferative activity of all the synthesized compounds was evaluated against five human prostate cancer cell lines and in RH7777 cells (negative control) using the sulforhodamine B (SRB) assay (see description in Example 5 above). […]

For test [14], the system named is CHO cells (CHO-1, CHO-K1). Description: SRB cytotoxicity assay, CHO. The test is classed as cell-based. The conditions noted are these: Table 9; negative control cell line; 96 h. Here is the method:
as §1, §2
Cells were exposed to a wide range of concentrations (0 to 100 μM) of the particular compound for 96 h in 96 well plates. Cells were fixed with 10% trichloroacetic acid, washed five times with water. The plates were air dried overnight and fixed cells were stained with SRB solution. The cellular protein-bound SRB was measured at 540 nm using a plate reader. Cell numbers at the end of the treatment were measured.
Cells were exposed to a wide range of concentrations (0 to 100 μM) of the particular compound for 96 h in 96-well plates. Cells were fixed with 10% trichloroacetic acid, washed five times with water. The plates were air dried overnight and fixed cells were stained with SRB solution. The cellular protein-bound SRB was measured at 540 nm using a plate reader. Cell numbers at the end of the treatment were calculated as a percentage of untreated control.

The mark [15] stands for this setting: Homo sapiens, PPC-1, Example 10 table.
[16] abbreviates: Rattus norvegicus, RH7777, Example 10 table, 0 to 100 μM for 96 h.
[17] abbreviates: Table 8, breast cancer cell line.

Where two headings read alike, the source gives them in different places.

A word on the IC50: it is the concentration needed to halve the response being measured.

On to `CCCCCCCCCCCCCCCCCCNC(=O)[C@@H]1CSC(c2ccccc2)N1.Cl` (mixture of isomers) [Compound 5-HCI, (2RS, 4R)-2-Phenylthiazolidine-4-carboxylic acid octadecylamide Hydrochloride], for which the half-maximal inhibitory concentration (IC50) in test [1] came to 2.5 µM; in test [3] it was 8.5 µM; in test [4] (setting [15]), 2 µM; in [5], 2.1 µM; in [6], 7.8 µM; in test [7], 5 µM. In addition, the concentration for half-maximal inhibition (IC50) in test [8] (setting [16]) amounted to 25.6 µM; in [9] (Example 10 table, 96 h), 4.2 µM; in test [9] (setting [17]), 4.2 µM; in test [10], 5.4 µM; in test [11] it was 4.5 µM. In addition, the “Apoptosis enrichment factor (ratio of OD405 in treated and un-treated cells)” value in the test on LNCaP cells [2] (2 μM for 72 h) is 4.5; with LNCaP cells [2] (5 μM for 72 h) it was 45.2; with LNCaP cells [2] (10 μM for 72 h), 37.1; in the test on LNCaP cells [2] (20 μM for 72 h), 26.1; with PC-3 cells (2 μM for 72 h), 1.4; in the test on PC-3 cells (5 μM for 72 h), 2.3. Also, the “Apoptosis enrichment factor (ratio of OD405 in treated and un-treated cells)” value in the test on PC-3 cells (10 μM for 72 h) was determined as 3.4; in the test with PC-3 cells (20 μM for 72 h), 12.7. Further, the “DNA fragmentation (apoptosis)” value in the test with LNCaP cells [12] is on record as “induce cell apoptosis”.
Take `CCCCCCCCCCCCCCNC(=O)[C@@H]1CSC(c2ccccc2)N1.Cl` (mixture of isomers) [Compound 4-HCI, (2RS, 4R)-2-Phenylthiazolidine-4-carboxylic acid tetradecylamide Hydrochloride]: the half-maximal inhibitory concentration (IC50) is 13.9 µM in test [1]; 2.1 µM in test [3]; 1.3 µM in test [4] (setting [15]); 1.4 µM in test [5]; 3 µM in test [6]; 2 µM in test [7]. In addition, the IC50 in test [8] (setting [16]) stood at 3.4 µM; in test [9] (Example 10 table, 96 h) it was 4.2 µM; in [9] (setting [17]), 2.4 µM; in [10], 2.4 µM; in [11] it was 1.6 µM. For the same compound, the “Apoptosis enrichment factor (ratio of OD405 in treated and un-treated cells)” value in the test on LNCaP cells [2] (2 μM for 72 h) stood at 14.1; in the test on LNCaP cells [2] (5 μM for 72 h), 75.4; with LNCaP cells [2] (10 μM for 72 h), 80.7; in the test on PC-3 cells (2 μM for 72 h) it was 1.8; with PC-3 cells (5 μM for 72 h), 18.7; with PC-3 cells (10 μM for 72 h), 54.0. Further, the entries for the “Apoptosis enrichment factor (ratio of OD405 in treated and un-treated cells)” value in the test on RH7777 cells (2 μM for 72 h), in the test on RH7777 cells (5 μM for 72 h) and with RH7777 cells (10 μM for 72 h) were 2.6, 3.2 and 2.5, respectively. The “Fold less selective against RH7777 cell line than compound 5” value in test [8] is 8 fold. Moreover, the “DNA fragmentation (apoptosis)” value with LNCaP cells [12] is “induce cell apoptosis”.
Consider `CCCCCCCCC=CCCCCCCCC(=O)NCCO` [compound 319], for which the “Activity against DU-145, PC-3, and LNCaP prostate cancer cell lines” value in test [13] was “did not show any activity”. Besides, the IC50 in [4] (Table 9) was over 20 µM; in test [14], over 20 µM; in test [8] (Table 9, negative control cell line, 96 h), over 20 µM. Moreover, the “IC50 LNCaP” value in test [5] (Table 9) was “Not Active”. In test [7] (Table 9), the “IC50 TSU” value is recorded as “Not”.
